Usually pKa stands for the pH at which an ionisable group is half protonated. A high value points to a weaker acid or stronger base.

SMILES strings stand for the structures.

For the first series the following is noted: acidic group.
`CC1(C(=O)O)CCCCC1` showed a pKa of 5.13.

With `CC1(C)C(=O)NC(=O)C1(C)C`, the pKa is 9.7.

`O=c1ccc(Br)ccc1O`: the pKa turned out to be 6.32. Same read-out and setting: in the case of `CC(=O)Oc1cccc2cccc(O)c12` it was 9.69. Still for that read-out and setting: in the case of `CCOC(=O)C1CCCCC1=O` (stereo not given) it was 11.9; in that of `O=C1NC(=O)C(Cc2ccccc2)N1` (stereo not given), 9.03; in that of `N#Cc1ccc(C(=O)S)cc1`, 1.42. Compound `Oc1cc(Cl)c(Cl)c(Cl)c1` returned a pKa of 7.7. Still for that read-out and setting: as for `Fc1cccc(NC(=S)c2cccc(Br)c2)c1`, the figure is 10; as for `C[N+]1(CCCC(=O)O)CCCCC1`, 4.11; as for `O=S(=O)(Nc1ccccc1)C(F)(F)F`, 4.85. In the case of `COc1nc([N+](=O)[O-])n[nH]1`, the pKa worked out at 5.35. The compound `O=S(Cc1ccccc1)c1cnn[nH]1` (stereo not given) returned a pKa of 6.09. Same read-out and setting: as for `CCCC[NH2+]CCC(=O)O`, the figure is 3.57. `O=C(O)[C@]1(Cl)[C@@H]2CCC[C@@H]21` displayed a pKa of 2.82. Still for that read-out and setting: in the case of `Cc1cc(C(=O)O)ccc1Br` it was 4.03. Turning to `Cc1ccccc1C[N+](=O)[O-]`, the pKa was found to be 7.6. The same measure, in the same setting: as for `O=C(O)[C@@H]1CC[C@@H](C(=O)O)[Se][Se]1`, the figure is 2.85. Turning to `CCCCNC(=O)NS(=O)(=O)c1ccc(C)cc1`, the pKa is 5.3.

Consider `[NH3+]CC[SeH]`, for which the pKa came to 5. Still for that read-out and setting: as for `S=C(NC(=S)c1ccccc1)Nc1ccccc1`, the figure is 10.7. Same read-out and setting: as for `O=C1CS(=O)(=O)NC(=O)N1`, the figure is 2.7; as for `CC[C@H](C(=O)O)[C@@]1(O)C[C@H]2CC[C@@H]1C2`, 4.07. The compound `N[n+]1ccccc1O` had a pKa of 2.1.

The compound `C[C@@]12CC(=O)N[C@]1(CCC(=O)[O-])C(=O)NC2=O` registered a pKa of 8.1. Same read-out and setting: in the case of `N#CC(C#N)=NNc1ccc(/N=N/c2ccccc2)cc1` it was 7.33.

The compound `O=C(O)c1ccccc1Cl` returned a pKa of 2.95. As to `O=C(O)/C=C/c1ccco1`, the pKa was found to be 4.29. The same measure, in the same setting: in the case of `CC(=O)[n+]1cccc(C#N)c1` it was 1.62; in that of `CC[N+](O)(CC)c1ccccc1`, 4.53; in that of `Cn1c(C(=O)O)cc(=O)n(C)c1=O`, 0.8.

Regarding `Cc1nn(-c2ccccc2)c(O)c1C(C)C`, the pKa was found to be 11.6.

Take `C[N+](C)(C)CCS`: the pKa was determined as 7.98. On the same count and under the same terms, in the case of `Cc1ccc2[nH]c(CO)nc2c1` it was 11.5.

As for `CC(C)[NH2+]CC(=O)c1ccc(O)cc1`, the pKa was found to be 7.56. `CC1=NS(=O)(=O)c2cnccc2N1` returned a pKa of 7.6. The same measure, in the same setting: in the case of `Cc1[nH]c2ccccc2c1C(=O)O` it was 5.89; in that of `CCCCCCCCCCCC(=O)O`, 4.89. Still for that read-out and setting: in the case of `CC[N+](O)(CC)CC` it was 5.13; in that of `COc1ccc(/C=N/O)cc1`, 11. The same measure, in the same setting: in the case of `O=[N+]([O-])c1ccc(O)c(C[NH+]2CCOCC2)c1` it was 5.61; in that of `Cc1ccc2nc3ccc(O)cc3nc2c1`, 7.2. In turn, `COc1cc(CO)ccc1O` gave a pKa of 9.79. The same measure, in the same setting: in the case of `Nc1c2ccccc2[nH+]c2ccc(O)cc12` it was 7.71. On the same count and under the same terms, in the case of `Cc1ccc(C(=O)O)cc1C` it was 4.41.

As for `COc1cccc(/C=N/O)c1`, the pKa stood at 10.6.

`CC1(C)CC=CC(=O)C1` came in with a pKa of 12.4.

Consider `C=C(C)[C@H]1C[NH2+][C@H](C(=O)O)[C@H]1CC(=O)OC`, for which the pKa came out at 1.95. On the same count and under the same terms, in the case of `[NH3+]CCC#CC#CCCC(=O)O` it was 4.12. Same read-out and setting: in the case of `COc1cc(S(C)=O)ccc1-c1nc2cnncc2[nH]1` (stereo not given) it was 8.49. Same read-out and setting: as for `O=C(O)CCc1c[nH]c[nH+]1`, the figure is 4; as for `CNc1nc2ncncc2[nH]1`, 9.56. Turning to `C[Si](C)(C)c1cccc(C(=O)O)c1`, the pKa is 4.24. Consider `CCCCCc1c(-c2ccccc2)nn(-c2ccccc2)c1O`, for which the pKa came out at 7.3. As to `CC(C)CCC(=O)O`, the pKa turned out to be 4.84. `C[NH2+]CCCNC(=O)/C=N/O` registered a pKa of 8.61.

Take `CCOC(=O)c1c(C)nc(C)c(C(=O)OCC)c1-c1cccc(NS(=O)(=O)c2ccc(N)cc2)c1`: the pKa is 9.7. On the same count and under the same terms, in the case of `CC1(C)SC(=S)NC1=O` it was 5.38; in that of `OCCO`, 14. On the same count and under the same terms, as for `[NH3+]c1cccc(C(=O)O)c1`, the figure is 3.09. Same read-out and setting: in the case of `C/C=C/C1=C(O)C(=O)c2ccccc2C1=O` it was 4.78; in that of `C[NH2+]CC(=O)c1ccc(O)cc1`, 7.7; in that of `O=Cc1ccc(O)cc1`, 7.53. Turning to `CC#CC#CCC(=O)O`, the pKa amounted to 3.23.

With `O=C(CCl)Nc1nnc(-c2ccccc2)s1`, the pKa stood at 6.9.

`COc1ccc(S(N)(=O)=O)cc1` had a pKa of 9.93.

`O=C1CCC(C(=O)O)N1` (stereo not given): the pKa came out at 3.25. With `CCC(O)C(C(=O)O)c1ccc(-c2ccccc2)cc1` (stereo not given), the pKa worked out at 4.16. On the same count and under the same terms, in the case of `NC(=O)C(N)CC(=O)O` (stereo not given) it was 7.95; in that of `N#CC(C#N)=NNc1ccccc1Cl`, 5.84; in that of `CC(C)(C)OC(=O)NS(=O)(=O)c1ccc(S(C)(=O)=O)cc1`, 3.76.

The series is the same for the next values; noted with them: basic group.
`OCCN(CCO)CCc1nnn[nH]1` came in with a pKa of 9.2. Still for that read-out and setting: as for `C1C[NH2+]CCSCCN1`, the figure is 4.16; as for `N#Cc1cc(-c2ccccc2)nnc1NCC[NH+]1CCOCC1`, 0.5. On the same count and under the same terms, in the case of `Cc1cc(N)nc(C)n1` it was 6.85; in that of `COc1ccc(N)cc1C[NH3+]`, 5.24; in that of `CN1CCC[NH+](C)Cc2ccccc2OCCOc2ccccc2C1`, 7.92. On the same count and under the same terms, as for `Nc1cccc2nccnc12`, the figure is 2.62; as for `O=C(CN1CCCCC1)Nc1ccccc1`, 7.85; as for `CCN(CC)Cc1cc(Br)ccc1[O-]`, 10.7. In turn, `COc1ccc(OC)c(N)c1` registered a pKa of 3.72. `CN(C)/C=N/c1ccccc1Br` returned a pKa of 6.71. On to `FC(F)(F)c1cc(-c2ccccc2)nnc1NCCN1CCOCC1`, for which the pKa is 6.75. The same measure, in the same setting: in the case of `Nc1n[nH]c2ccccc12` it was 3.15; in that of `O=C([O-])[C@@H](NCCN[C@@H](C(=O)[O-])c1ccccc1[O-])c1ccccc1[O-]`, 11.9; in that of `Oc1cccc(C2NCCS2)c1` (stereo not given), 5.2. On the same count and under the same terms, as for `Cn1c(=O)cnc2ccccc21`, the figure is -1.15.

For the compound `CC(C)N[C@H](c1ccccc1)[C@H](O)c1ccccc1`, the pKa was 11.8. Still for that read-out and setting: in the case of `C1CCN(C2CCNCC2)CC1` it was 10.7. In turn, `N=C(N)N(c1ccccc1)c1ccccc1` had a pKa of 10.4. Still for that read-out and setting: as for `N#CC(C#N)=NNc1ccc(/N=N/c2ccccc2)cc1`, the figure is -0.87; as for `Nc1ccc(Cl)cn1`, 4.83. Same read-out and setting: as for `CCCCCCCCCCNc1ccccc1`, the figure is 4.56.

For the compound `CSc1ccncc1`, the pKa came to 5.97. Still for that read-out and setting: in the case of `Nc1ccc(-c2ccc(N)cc2)cc1` it was 4.96. On the same count and under the same terms, as for `Nc1ccc2c(c1)CCCC2`, the figure is 5.2.

Consider `Cn1ccnc1-c1[nH+]ccn1C`, for which the pKa was 0.5. Still for that read-out and setting: in the case of `Cc1ccc2[nH]c(CO)nc2c1` it was 5.64; in that of `CNCC(O)CO` (stereo not given), 9.55; in that of `CCCCCCCCCCCCN(CC(C)O)CC(C)O` (stereo not given), 7.8. On to `CCC/C(N)=C/C(=O)c1ccccc1`, for which the pKa is -1.12. Still for that read-out and setting: in the case of `CC[NH+](CC)CCCC(C)Nc1cc[nH+]c2ccc(OC)cc12` (stereo not given) it was -7.83; in that of `CC(=O)Nc1ccncc1`, 5.87.

For the compound `Cc1ccc(C[NH3+])cc1N`, the pKa was 4.26. Same read-out and setting: in the case of `c1ccc(-c2[nH]c3ccccc3[nH+]2)nc1` it was -1.59. On the same count and under the same terms, as for `CCCCCCCCCCCCN(CC(O)CC)CC(O)CC` (stereo not given), the figure is 5.6.

`Cc1cccc2cccnc12` registered a pKa of 4.87. The same measure, in the same setting: as for `CN1C[C@H](C(=O)[O-])C[C@@]2(O)c3cccc4[nH]cc(c34)C[C@@H]12`, the figure is 8.33. The same measure, in the same setting: as for `CC[C@H]1CN2CC[C@@H]1C[C@H]2[C@H](O)c1ccnc2ccc(OC)cc12`, the figure is 8.67. The same measure, in the same setting: in the case of `CC(CN)/C(N)=N/O` (stereo not given) it was 9.15. Take `Cc1ccc(CN)cc1`: the pKa was 9.51. On the same count and under the same terms, as for `CCN(CC)Cc1cc(Cl)cc(Cl)c1[O-]`, the figure is 11.6; as for `C=C(C)C(=O)OCCN(CC)CC`, 8.66.

Compound `Cc1cnc2c(C)ccc([N+](=O)[O-])c2c1NCCC[NH+](C)C` registered a pKa of 6.1. Still for that read-out and setting: as for `C1CNCCNCCNC1`, the figure is 11.7; as for `COc1cc(S(C)=O)ccc1-c1nc2cnncc2[nH]1` (stereo not given), 3.81; as for `CNc1nc2ncncc2[nH]1`, 4.78. The compound `Cc1ccccc1NC(=O)CN` returned a pKa of 7.81.

For `CCCCCCCCCCN`, the pKa was 10.6. On the same count and under the same terms, in the case of `CC(C)NCCCCCCNC(C)C` it was 11.2.

`Cc1cc(N)ccn1` showed a pKa of 9.44.

In turn, `Cc1ccccc1/C(=N/CCC[NH+](C)C)c1ccccc1` showed a pKa of 4.29.

Turning to `CCC(O)CN(CC)CCO` (stereo not given), the pKa was found to be 9.1. Same read-out and setting: as for `Cc1cc[nH+]c([O-])n1`, the figure is 3.15; as for `Cc1cn(C)nc1C`, 3.56; as for `COc1ccc2[nH]cc(CC(C)N)c2c1` (stereo not given), 10.3.

For the compound `CCN(CC)N(C)C`, the pKa turned out to be 6.88. The same measure, in the same setting: as for `CC(C)N1CCCC1`, the figure is 11.2. Same read-out and setting: in the case of `CC(=O)OCCN(C)C` it was 8.3; in that of `CCC[C@H]1NC(C(=O)[O-])CS1` (stereo not given in full), 6.25; in that of `N#CCCN`, 7.75. Same read-out and setting: as for `Cc1cc(-c2cc(C)n(C)[nH+]2)nn1C`, the figure is -0.6; as for `C#C[C@]1(O)C[C@H](C)N[C@@H]2CCCC[C@H]21`, 9.63.

In the case of `C#CCCCN(C)C`, the pKa came out at 8.88. On the same count and under the same terms, in the case of `Clc1cccc(Nc2ccccc2)c1` it was 2.34; in that of `COc1ccc(C2NCCS2)cc1` (stereo not given), 5.45; in that of `CCCCCC/[NH+]=C/c1c(C)cnc(C)c1O`, 3.39. The same measure, in the same setting: in the case of `Nc1nccc(-c2csc(N)n2)n1` it was 4; in that of `N/C(=N\O)C([NH3+])c1ccccc1` (stereo not given), 2.3. On the same count and under the same terms, in the case of `CC(C)N1CCC(NN)CC1` it was 9.65. `Nc1cccc2cc([N+](=O)[O-])ccc12` showed a pKa of 3.15. Take `N#CC(C#N)=NNc1ccccc1Cl`: the pKa is -0.77. Compound `[NH3+]CCCc1ccncc1` displayed a pKa of 5.51. Same read-out and setting: in the case of `CCN(CC)CC(O)CO` (stereo not given) it was 9.77. The compound `Cn1cnc2ncnc([O-])c21` gave a pKa of 8.8.

The values are drawn from the pKa sets of Baltruschat and Czodrowski (2020).
